Assay results as given in article PMC3602187, “From Design to Screening: A New Antimicrobial Peptide Discovery Pipeline” (PLoS ONE, 2013).

These substances were tested on Listeria innocua 33090 (assay: colony overlay assay of peptide-secreting E. coli clones (library screening and re-test)). Details: library screening; selected colonies pooled by zone size; peptides identified by 454 sequencing, full-length sequences with minimum 20 reads.
Assay type: cell-based
Design: key: higher activity group (H); equal activity group (E); lower activity group (L)
Method: For the in vivo production of AMPs, we have employed an E. coli expression system that relies on periplasmic-expression of recombinant peptides in a host cell that lacks the lpo membrane protein, thus releasing the peptides present in the periplasmic space outside the cells. When the producer cells are grown into colonies on a solid substrate, it leads to accumulation of the recombinant peptides around the colony and allows for easy library screening. The screening assay used in this study was a modified version of the standard agar diffusion method as previously described. Library-transformed E. coli colonies are overlaid with a tester strain and incubated overnight to allow for peptide expression and tester strain growth. Next day, the plates are inspected for the formation of clear growth inhibition zones around E. coli colonies, which is an indication of active AMP production by the host colony.
For the construction of Pln-423 mutant library in E. coli, the expression system that consists of a periplasmic-leaky E. coli strain JE5505 and the expression plasmid pFLAG-CTS was employed for direct screening of peptide activities. It should be noted here that this plasmid contains ompA secretion signal sequence and cleavage of this sequence results in a serine residue at the N-terminal of all mature peptides. A total of 1.0×10^5 colonies, approximately 8-fold coverage of the library, were screened against Listeria innocua 33090 in five separate screening experiments. L. innocua was previously deemed as a suitable indicator for pathogenic L. monocytogenes displaying similar bacteriocin sensitivity, therefore it was used as a surrogate strain throughout this study. The selection process involved two criteria; 1) the size of the each inhibition zone was compared to that of wild-type Pln-423 as a correlation to anti-listerial activity level, 2) when several colonies formed inhibition zones that are very similar in size and character, only a few from each group were selected. The colonies were pooled into three groups based on their activities, giving 43 clones in a higher activity group (H), 81 clones in an equal activity group (E), and 241 clones in a lower activity group (L). Their plasmids were extracted from each activity group and analyzed by both Sanger and 454 high-throughput sequencing to identify peptide sequences.
These clones were also re-tested by colony overlay assay to compare their activities to wild-type Pln-423 based on the size of the inhibition zone around each clone (Figure 2-A). Based on this assay, all ten plantaricin mutants formed larger inhibition zones (10.3±0.5 to 11.4±0.3 mm zone diameter) compared to wild-type Pln-423 (6.2±0.2 mm) against L. innocua 33090. Out of those ten, three clones have a single mutation and […] clones have two mutations and the remaining single clone has three mutations. […] Positions like Ser23, Ser27, His28, and Lys36 were commonly mutated with similar amino acids indicating their potential role on higher peptide activity.
The screening method used in this study was a modified version of the standard colony overlay method as previously described. All the chemicals and growth media supplements were obtained from either Sigma-Aldrich or Fisher Scientific unless otherwise stated. Transformed E. coli JE5505 cells were diluted to 3000–5000 cfu (determined empirically prior to screening by plating serial dilutions of E. coli suspensions of a known absorbance and counting the colonies after incubation) in 25 ml LB soft agar (0.8%, 45°C) per screening plate and poured into 150 mm petri dishes. Once the media was solidified, they were overlaid with 10 ml LB soft agar (45°C) and incubated at 37°C for 24 h for host-colony formation. Next day, these plates were re-overlaid with 10 ml TSB soft agar containing 1 mM IPTG and the indicator strain Listeria innocua ATCC 33090 (diluted to OD600 = 0.03). […]

Substance | activity group by size of inhibition zone compared to wild-type Pln-423
KYYGNGVTCGKHSCSVNWGQAFSCNVSHLANFGHGVC* [Pep-2_4888] | L and H
KYYGNGVTCGKHSCSVNWGQAFSCSVVHLVNFGHGKC* [Pep-2_6256] | L
KYYGNGVTCGKHSCSVNWGQAFSCSVIHLANFGHGSC* [Pep-2_11968] | H
KYYGNGVTCGKHSCSVNWGQAFSCSVTHLASFGHGKC* [Pep-2_6153] | L
KYYGNGVTCGKHSCSVNWGQAVSCSVHHLANFGHGKC* [GROUP E-UM-6] | E
KYYGNGVTCGKHSCSVNWGQAFECSVSHLATFGHGKC* [Pep-2_3453] | E
KYYGNGVTCGKHSCSVNWGTAFSCSVSYLANFGHGKC* [GROUP L-UM-14] | L
KYYGNGVTCGKHSCSVNWGQALSCAVSHLANFGHGKC* [Pep-2_5026] | L
KYYGNGVTCGKHSCSVNWGQAFSCTVSNLANFGHGKC* [Pep-2_6771] | L and E and H
KYYGNGVTCGKHSCSVNWGQAFSCSMSRLANFGHGKC* [Pep-2_6562] | L
KYYGNGVTCGKHSCSVNWGEAFSCSVHHLANFGHGKC* [Pep-2_5876] | E
KYYGNGVTCGKHSCSVNWGQAFVCSVSHLANFGHGTC* [Pep-2_3699] | E and H
KYYGNGVTCGKHSCSVNWGQAFSCSVSHLANFGHGWC* [Pep-1_114] | L
KYYGNGVTCGKHSCSVNWGQAFSCSVSHLANFGHGRC* [GROUP L-UM-25] | L
KYYGNGVTCGKHSCSVNWGQAFSCAVSHLANFGVGKC* [Pep-2_5092] | L
KYYGNGVTCGKHSCSVNWGQVFSCSVSHLANFGHGKC* [Pep-1_22] | L
KYYGNGVTCGKHSCSVNWGKAFSCSVSMLANFGHGKC* [Pep-2_1384] | L
KYYGNGVTCGKHSCSVNWGQSFSCSFSHLANFGHGKC* [Pep-2_5559] | L
KYYGNGVTCGKHSCSVNWGQGFSCSVNHLANFGHGKC* [Pep-2_2457] | L
KYYGNGVTCGKHSCSVNWGQAFSCHVSHLANFGHGKC* [Pep-1_43] | L
KYYGNGVTCGKHSCSVNWGQAFSCSVSRLANFGEGKC* [Pep-2_6602] | H

Substance | activity group by size of inhibition zone compared to wild-type Pln-423
KYYGNGVTCGKHSCSVNWGEAFSCAVSHLANFGHGKC* [Pep-2_5012] | E
KYYGNGVTCGKHSCSVNWGWAFSCSVSHLANFGHGKC* [Pep-1_18] | L
KYYGNGVTCGKHSCSVNWGQAFMCSVEHLANFGHGKC* [Pep-2_6004] | L
KYYGNGVTCGKHSCSVNWGQAFSCSVEHLANFGYGKC* [Pep-2_6063] | E
KYYGNGVTCGKHSCSVNWGQAFSCSVSHWANFGHGKC* [GROUP L-UM-32] | L
KYYGNGVTCGKHSCSVNWGQAFSCSVVHIANFGHGKC* [Pep-2_6250] | H
KYYGNGVTCGKHSCSVNWGQAFSCSVSDLANFGHGKC* [Pep-1_62] | L
KYYGNGVTCGKHSCSVNWGQAFVCSVRHLANFGHGKC* [Pep-2_3643] | L
KYYGNGVTCGKHSCSVNWAQALSCSVSHLANFGHGKC* [Pep-2_1132] | L
KYYGNGVTCGKHSCSVNWGQAFSCSIHHLANFGHGKC* [Pep-2_5914] | L
KYYGNGVTCGKHSCSVNWGQAFSCSVSRLANFGHGKC* [Pep-1_61] | E and H
KYYGNGVTCGKHSCSVNWGQAFSCSVSSLANFGHGLC* [Pep-2_12081] | E
KYYGNGVTCGKHSCSVNWGQGFSCSVSHLANFGHGKC* [Pep-1_23] | L
KYYGNGVTCGKHSCSVNWAQGFSCSVSHLANFGHGKC* [Pep-2_1127] | L
KYYGNGVTCGKHSCSVNWGQAFSCSVTHLANFGHGRC* [Pep-2_6181] | E
KYYGNGVTCGKHSCSVNWGQAFSCSVSVLANFGHNKC* [Pep-2_6933] | L
KYYGNGVTCGKHSCSVNWGQAFSCAVSRLANFGHGKC* [Pep-2_5053] | L
KYYGNGVTCGKHSCSVNWGQAFSCSFSHLANFGHGKC* [Pep-1_52] | L
KYYGNGVTCGKHSCSVNWGQAFDCSVSHLANFGHGKC* [GROUP L-UM-4] | L
KYYGNGVTCGKHSCSVNWGQAFSCSVSNLANFGHGRC* [Pep-2_6829] | L
KYYGNGVTCGKHSCSVNWGHAFSCSVSHLANFGHGHC* [Pep-2_11707] | L

Substance | activity group by size of inhibition zone compared to wild-type Pln-423
KYYGNGVTCGKHSCSVNWGQAFDCSVSHLANFGHGKC* [GROUP E-UM-1] | E
KYYGNGVTCGKHSCSVNWGQAFCCSVSHLANFGHGSC* [Pep-2_11946] | L
KYYGNGVTCGKHSCSVNWGQAFSCSVSHLAAFGHGSC* [Pep-2_11993] | H
KYYGNGVTCGKHSCSVNWGQAFSCWVSHLANFGHGKC* [GROUP L-UM-15] | L
KYYGNGVTCGKHSCSVNWGRAFSCSVSRLANFGHGKC* [Pep-2_6523] | L
KYYGNGVTCGKHSCSVNWGQAFSCSVNVLANFGHGKC* [Pep-2_6891] | L
KYYGNGVTCGKHSCSVNWGQAFSCTVEHLANFGHGKC* [Pep-2_6015] | E and H
KYYGNGVTCGKHSCSVNWGQAFECSVSHIANFGHGKC* [Pep-2_3442] | E and H
KYYGNGVTCGKHSCSVNWGQAFMCSLSHLANFGHGKC* [GROUP L-UM-7] | L
KYYGNGVTCGKHSCSVNWGQAFSCSVSALANFGHGRC* [Pep-2_7045] | L
KYYGNGVTCGKHSCSVNWGQAFSCIVENLANFGHGKC* [GROUP L-UM-26] | L
KYYGNGVTCGKHSCSVNWGQAFSCGVSHLANFGHGKC* [GROUP E-UM-7] | E
KYYGNGVTCGKHSCSVNWGQAFVCSVSHLANFGHGKC* [Pep-1_34] | L and E
KYYGNGVTCGKHSCSVNWGQAFSCSVAELANFGHGKC* [Pep-2_6350] | H
KYYGNGVTCGKHSCSVNWGQAYSCSVSHLANFGHGKC* [GROUP L-UM-21] | L
KYYGNGVTCGKHSCSVNWGQAFSCVVSHLANFGHGTC* [Pep-2_4995] | L
KYYGNGVTCGKHSCSVNWGQAFSCSVSHLANFGMGEC* [Pep-2_10826] | H
KYYGNGVTCGKHSCSVNWNQAFYCSVSHLANFGHGKC* [Pep-2_921] | L
KYYGNGVTCGKHSCSVNWGQAMSCSVSRLANFGHGKC* [Pep-2_6538] | E
